Data from ChEMBL document CHEMBL5634181, “Genome Mining Leads to Diverse Sesquiterpenes with Anti-inflammatory Activity from an Arctic-Derived Fungus” (J Nat Prod, 2024).
Calls of active or inactive are those of the source. No cut-off for these calls is given here.

Legend:
RAW264.7 [1] = assay: Antiproliferative activity against LPS-induced mouse RAW264.7 cells assessed as reduction in cell viability > 40 uM incubated for 24 hrs by CCK-8 assay; assay type: functional, cell-based
RAW264.7 [2] = assay: Anti-inflammatory activity against LPS-Induced mouse RAW264.7 cells assessed as reduction in NO release at 10 uM incubated for 24 hrs; assay type: functional, cell-based
RAW264.7 [3] = assay: Anti-inflammatory activity against LPS-Induced mouse RAW264.7 cells assessed as inhibition rate of NO release at 10 uM incubated for 24 hrs relative to control; assay type: functional
Danio rerio [4] = species on record: Danio rerio; assay: Anti-inflammatory activity against CuSO4-induced transgenic Zebrafish acute inflammation model assessed as decrease in caspase-1 expression at 20 to 40 uM preincubated with CuSO4 for 24 hrs followed by compound addition and measured after 2 hrs by RT-qPCR analysis; assay type: functional, organism-based; conditions: dose 20-40 µM
RAW264.7 [5] = assay: Anti-inflammatory activity against LPS-induced mouse RAW264.7 cells reduction in TNF-alpha mRNA level by RT-qPCR analysis; assay type: functional, cell-based; conditions: dose 20-40 µM
Danio rerio [6] = species on record: Danio rerio; assay: Anti-inflammatory activity against CuSO4-induced transgenic Zebrafish acute inflammation model assessed as decrease in NLRP3 expression at 20 to 40 uM preincubated with CuSO4 for 24 hrs followed by compound addition and measured after 2 hrs by RT-qPCR analysis; assay type: functional, organism-based; conditions: dose 20-40 µM
Danio rerio [7] = species on record: Danio rerio; assay: Anti-inflammatory activity against CuSO4-induced transgenic Zebrafish acute inflammation model assessed as decrease in TNF-alpha expression at 20 to 40 uM preincubated with CuSO4 for 24 hrs followed by compound addition and measured after 2 hrs by RT-qPCR analysis; assay type: functional, organism-based; conditions: dose 20-40 µM
Danio rerio [8] = species on record: Danio rerio; assay: (§1) Anti-inflammatory activity against CuSO4-induced transgenic Zebrafish acute inflammation model assessed as zebrafish movement by measuring decrease in total distance at 20 to 40 uM preincubated with CuSO4 for 24 hrs followed by compound addition and measured after 2 hrs by fluorescence microscopic analysis; assay type: functional, organism-based; conditions: dose 20-40 µM
Danio rerio [9] = species on record: Danio rerio; assay: Anti-inflammatory activity against CuSO4-induced transgenic Zebrafish acute inflammation model assessed as decrease in IL-1beta expression at 20 to 40 uM preincubated with CuSO4 for 24 hrs followed by compound addition and measured after 2 hrs by RT-qPCR analysis; assay type: functional, organism-based; conditions: dose 20-40 µM
RAW264.7 [10] = assay: Anti-inflammatory activity against LPS-Induced mouse RAW264.7 cells assessed as suppression of p-p38 expression by Western blot analysis; assay type: functional, cell-based; conditions: dose 20-40 µM
RAW264.7 [11] = assay: Anti-inflammatory activity against LPS-Induced mouse RAW264.7 cells assessed as suppression of p-JNK expression by Western blot analysis; assay type: functional, cell-based; conditions: dose 20-40 µM
Danio rerio [12] = species on record: Danio rerio; assay: Anti-inflammatory activity against CuSO4-induced transgenic Zebrafish acute inflammation model assessed as decrease in IL-6 expression at 20 to 40 uM preincubated with CuSO4 for 24 hrs followed by compound addition and measured after 2 hrs by RT-qPCR analysis; assay type: functional, organism-based; conditions: dose 20-40 µM
Danio rerio [13] = species on record: Danio rerio; assay: as §1, with “as” for “as zebrafish movement by measuring”, “migration of inflammatory cells to lateral line” for “total distance”; assay type: functional, organism-based; conditions: dose 20-40 µM
RAW264.7 [14] = assay: Anti-inflammatory activity against LPS-Induced mouse RAW264.7 cells assessed as suppression of p-ERK expression by Western blot analysis; assay type: functional, cell-based; conditions: dose 20-40 µM
RAW264.7 [15] = assay: Anti-inflammatory activity against LPS-Induced mouse RAW264.7 cells assessed as suppression of NLRP3 expression at 20 to 40 uM by Western blot analysis; assay type: functional, cell-based; conditions: dose 20-40 µM
Danio rerio [16] = species on record: Danio rerio; assay: Anti-inflammatory activity against CuSO4-induced transgenic Zebrafish acute inflammation model assessed as zebrafish movement by measuring average velocity at 20 to 40 uM preincubated with CuSO4 for 24 hrs followed by compound addition and measured after 2 hrs by fluorescence microscopic analysis; assay type: functional, organism-based; conditions: dose 20-40 µM
RAW264.7 [17] = assay: Anti-inflammatory activity against LPS-Induced mouse RAW264.7 cells assessed as suppression of caspase-1 expression at 20 to 40 uM by Western blot analysis; assay type: functional, cell-based; conditions: dose 20-40 µM
RAW264.7 [18] = assay: Cytotoxicity against LPS-induced mouse RAW264.7 cells assessed as effect on cell viability upto to 160 uM incubated for 24 hrs by CCK-8 assay; assay type: toxicity, cell-based; conditions: raw264.7, 24 h
RAW264.7 [19] = assay: Anti-inflammatory activity against LPS-induced mouse RAW264.7 cells reduction in IL-6 mRNA level by RT-qPCR analysis; assay type: functional, cell-based; conditions: dose 20-40 µM
RAW264.7 [20] = assay: Anti-inflammatory activity against LPS-induced mouse RAW264.7 cells reduction in IL-18 mRNA level by RT-qPCR analysis; assay type: functional, cell-based; conditions: dose 20-40 µM
RAW264.7 [21] = assay: Anti-inflammatory activity against LPS-induced mouse RAW264.7 cells reduction in IL-1beta mRNA level by RT-qPCR analysis; assay type: functional, cell-based; conditions: dose 20-40 µM

Structure (SMILES) | Activity (RAW264.7 [1]) | Activity (RAW264.7 [2]) | other results
C=C1C[C@H](O)C[C@]2(C)CC[C@@H](C(C)(C)O)C[C@@H]12 | inactive | – | –
CC(C)=C[C@H]1C[C@@](C)(O)[C@H]2CC=C(C)[C@@H](O)[C@H]2O1 | inactive | Active | –
CC1=CC(=O)C[C@@]2(C)CC[C@H](C(C)(C)O)C[C@H]12 | inactive | Active | –
CC(C)=CCC[C@](C)(O)[C@@H]1CC=C(C)[C@@H](O)C1 | inactive | Active | –
CC1=C2C[C@H](C(C)(C)O)CC[C@@]2(C)CCC1=O | Active | – | –
CC1=CC[C@@H]([C@@](C)(O)C/C(C)=C/[C@H](C)O)[C@@H](O)[C@H]1O | inactive | – | –
Cc1ccc([C@@](C)(O)C/C=C/C(C)(C)O)cc1 | inactive | Active | –
CC(C)=C[C@H]1C[C@@](C)(O)[C@@H]2[C@@H](CC=C(C)[C@@H]2O)O1 | inactive | – | –
CC1=CC[C@@H]2[C@H](O)COC/C(C)=C\[C@@H](O)C[C@]12C | inactive | – | –
C[C@@H]1C[C@H]2[C@@H]3CCC4=CC(=O)C=C[C@]4(C)[C@@]3(F)[C@@H](O)C[C@]2(C)[C@@]1(O)C(=O)CO [DEXAMETHASONE] | inactive | – | inhibition at 10 µM (RAW264.7 [3]): 72%
CO[C@]1([C@H](O)[C@@H](O)CC=C(C)C)C=CCC(C)=C1C | inactive | – | –
CC(C)=CCC[C@](C)(O)[C@@H]1CC=C(C)[C@@H](O)[C@H]1O | inactive | – | –
CC1=CC(=O)[C@H]2C[C@@H]1[C@]2(C)C/C=C/C(C)(C)O | Active | – | –
CC1=CC[C@@]2(C[C@H]1O)[C@H](C)CC[C@@H]2C(C)CO (stereo partly specified) | inactive | Active | Activity (Danio rerio [4]): Active; Activity (RAW264.7 [5]): Dose-Dependent Effect; Activity (Danio rerio [6]): Active; Activity (Danio rerio [7]): Active; Activity (Danio rerio [8]): Active; Activity (Danio rerio [9]): Active; Activity (RAW264.7 [10]): Dose-Dependent Effect; Activity (RAW264.7 [11]): Dose-Dependent Effect; Activity (Danio rerio [12]): Active; Activity (Danio rerio [13]): Active; Activity (RAW264.7 [14]): Dose-Dependent Effect; Activity (RAW264.7 [15]): Active; inhibition at 10 µM (RAW264.7 [3]): 65%; Activity (Danio rerio [16]): Active; Activity (RAW264.7 [17]): Active; Activity (RAW264.7 [18]): Non-Toxic; Activity (RAW264.7 [19]): Dose-Dependent Effect; Activity (RAW264.7 [20]): Dose-Dependent Effect; Activity (RAW264.7 [21]): Dose-Dependent Effect
C=C1[C@H](O)CC[C@]2(C)CC[C@@H](C(C)(C)O)C[C@@H]12 | inactive | – | –
CC(C)=C[C@H](O)C[C@]1(C)[C@@H]2C[C@H]1C(C)=CC2=O | inactive | – | –
